{
  "source": "PubChem BioAssay AID256",
  "about": "(DTP/NCI, 2004)",
  "test_system": "CD2F1 mice, L1210 leukemia ip, survival T/C",
  "assay": "NCI In Vivo Anticancer Drug Screen. Data for tumor model L1210 Leukemia (intraperitoneal) in CD2F1 (CDF1) mice",
  "conditions": "endpoint: mean survival time, higher = longer survival",
  "in_short": "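Mice carrying a transplanted tumor received test compound or vehicle alone. The value is the measurement in the treated group divided by that in the vehicle-treated control group.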",
  "key": {"[1]": {"conditions": "dose: 100.0 mg/kg/injection, schedule: Q01DX009 (ip), vehicle: saline with Tween-80"}, "[2]": {"conditions": "dose: 100.0 mg/kg/injection, schedule: Q04DX003 (ip), vehicle: saline with Tween-80"}, "[3]": {"conditions": "dose: 200.0 mg/kg/injection, schedule: Q01DX009 (ip), vehicle: saline with Tween-80"}, "[4]": {"conditions": "dose: 200.0 mg/kg/injection, schedule: Q04DX003 (ip), vehicle: saline with Tween-80"}, "[5]": {"conditions": "dose: 400.0 mg/kg/injection, schedule: Q01DX009 (ip), vehicle: saline with Tween-80"}, "[6]": {"conditions": "dose: 400.0 mg/kg/injection, schedule: Q04DX003 (ip), vehicle: saline with Tween-80"}, "[7]": {"conditions": "dose: 100.0 mg/kg/injection, schedule: Q04DX002 (ip), vehicle: saline with Tween-80"}, "[8]": {"conditions": "dose: 200.0 mg/kg/injection, schedule: Q04DX002 (ip), vehicle: saline with Tween-80"}, "[9]": {"conditions": "dose: 400.0 mg/kg/injection, schedule: Q04DX002 (ip), vehicle: saline with Tween-80"}},
  "note": "Where “and” joins values, the source holds several entries; their conditions need not be identical. Equal entries are not always repeated. Inconclusive results and toxic doses are left out.",
  "data": [
    {"molecule": "CO[C@@]12[C@@H]3N[C@@H]3CN1C1=C(C(=O)C(NCCN3CCCC3)=C(C)C1=O)[C@@H]2COC(N)=O", "values": [
      {"measurement": "T/C", "setting": "dose: 0.31 mg/kg/injection, schedule: Q01DX005 (ip), vehicle: water", "result": "101 % of control"},
      {"measurement": "T/C", "setting": "dose: 0.62 mg/kg/injection, schedule: Q01DX005 (ip), vehicle: water", "result": "101 % of control"},
      {"measurement": "T/C", "setting": "dose: 1.25 mg/kg/injection, schedule: Q01DX005 (ip), vehicle: water", "result": "113 % of control"},
      {"measurement": "T/C", "setting": "dose: 1.5 mg/kg/injection, schedule: Q01DX001 (ip), vehicle: water", "result": "100 % of control"},
      {"measurement": "T/C", "setting": "dose: 2.5 mg/kg/injection, schedule: Q01DX005 (ip), vehicle: water", "result": "120 % of control and 122 % of control"},
      {"measurement": "T/C", "setting": "dose: 3.0 mg/kg/injection, schedule: Q01DX001 (ip), vehicle: water", "result": "94 % of control"},
      {"measurement": "T/C", "setting": "dose: 6.0 mg/kg/injection, schedule: Q01DX001 (ip), vehicle: water", "result": "115 % of control"},
      {"measurement": "T/C", "setting": "dose: 12.0 mg/kg/injection, schedule: Q01DX001 (ip), vehicle: water", "result": "103 % of control"}
    ]},
    {"molecule": "CCCCCCCC(=O)Nc1ccc(-n2c(=O)cc(C)n2C)cc1", "values": [
      {"measurement": "T/C", "setting": "[1]", "result": "90 % of control"},
      {"measurement": "T/C", "setting": "[2]", "result": "90 % of control"},
      {"measurement": "T/C", "setting": "[3]", "result": "88 % of control"},
      {"measurement": "T/C", "setting": "[4]", "result": "97 % of control"},
      {"measurement": "T/C", "setting": "[5]", "result": "86 % of control"},
      {"measurement": "T/C", "setting": "[6]", "result": "95 % of control"}
    ]},
    {"molecule": "NC(=O)N/N=C/COC(=O)c1ccccc1", "values": [
      {"measurement": "T/C", "setting": "dose: 100.0 mg/kg/injection, schedule: Q01DX001 (ip), vehicle: saline with Tween-80", "result": "93 % of control"},
      {"measurement": "T/C", "setting": "dose: 200.0 mg/kg/injection, schedule: Q01DX001 (ip), vehicle: saline with Tween-80", "result": "91 % of control"},
      {"measurement": "T/C", "setting": "dose: 400.0 mg/kg/injection, schedule: Q01DX001 (ip), vehicle: saline with Tween-80", "result": "98 % of control"}
    ]},
    {"molecule": "CC(C)C(=O)C(C)(C)C(=O)N1CCCC1", "values": [
      {"measurement": "T/C", "setting": "dose: 100.0 mg/kg/injection, schedule: Q01DX009 (ip), vehicle: saline", "result": "92 % of control"},
      {"measurement": "T/C", "setting": "dose: 200.0 mg/kg/injection, schedule: Q01DX009 (ip), vehicle: saline", "result": "103 % of control"},
      {"measurement": "T/C", "setting": "dose: 400.0 mg/kg/injection, schedule: Q01DX009 (ip), vehicle: saline", "result": "91 % of control"}
    ]},
    {"molecule": "CC1([CH2][Hg][Cl])Cc2ccccc2O1", "note": "(stereo not drawn)", "values": [
      {"measurement": "T/C", "setting": "dose: 1.56 mg/kg/injection, schedule: Q01DX009 (ip), vehicle: saline with Tween-80", "result": "91 % of control"},
      {"measurement": "T/C", "setting": "dose: 3.13 mg/kg/injection, schedule: Q01DX009 (ip), vehicle: saline with Tween-80", "result": "94 % of control"},
      {"measurement": "T/C", "setting": "dose: 6.25 mg/kg/injection, schedule: Q01DX009 (ip), vehicle: saline with Tween-80", "result": "101 % of control"}
    ]},
    {"molecule": "Cc1ccccc1NC(=O)Oc1ccc(Cl)cc1C", "values": [
      {"measurement": "T/C", "setting": "[7]", "result": "101 % of control"},
      {"measurement": "T/C", "setting": "[8]", "result": "93 % of control"},
      {"measurement": "T/C", "setting": "[9]", "result": "97 % of control"}
    ]},
    {"molecule": "CCOC(=O)c1c(-c2ccccc2)csc1NS(=O)(=O)c1ccc(C)cc1", "values": [
      {"measurement": "T/C", "setting": "dose: 75.0 mg/kg/injection, schedule: Q01DX001 (ip), vehicle: saline", "result": "96 % of control"},
      {"measurement": "T/C", "setting": "dose: 150.0 mg/kg/injection, schedule: Q01DX001 (ip), vehicle: saline", "result": "90 % of control"},
      {"measurement": "T/C", "setting": "dose: 300.0 mg/kg/injection, schedule: Q01DX001 (ip), vehicle: saline", "result": "101 % of control"}
    ]},
    {"molecule": "CN1C(=O)C2C3CCC(C)(O3)C2C1=O", "note": "(stereo not drawn)", "values": [
      {"measurement": "T/C", "setting": "[2]", "result": "98 % of control"},
      {"measurement": "T/C", "setting": "[4]", "result": "96 % of control"},
      {"measurement": "T/C", "setting": "[6]", "result": "98 % of control"}
    ]},
    {"molecule": "COC1(OC)CCC(OC)(OC)C(OC)(OC)C1(OC)OC", "values": [
      {"measurement": "T/C", "setting": "[2]", "result": "96 % of control"},
      {"measurement": "T/C", "setting": "[4]", "result": "94 % of control"},
      {"measurement": "T/C", "setting": "[6]", "result": "102 % of control"}
    ]},
    {"molecule": "CC(=O)Nc1ccc2c(c1)Cc1ccccc1-2", "values": [
      {"measurement": "T/C", "setting": "[1]", "result": "101 % of control"},
      {"measurement": "T/C", "setting": "[2]", "result": "87 % of control"},
      {"measurement": "T/C", "setting": "[3]", "result": "95 % of control"},
      {"measurement": "T/C", "setting": "[4]", "result": "101 % of control"},
      {"measurement": "T/C", "setting": "[5]", "result": "101 % of control"},
      {"measurement": "T/C", "setting": "[6]", "result": "90 % of control"}
    ]},
    {"molecule": "O=C(Nc1ccc2c(c1)OCO2)O/N=C1\\C(=O)Nc2ccccc21", "values": [
      {"measurement": "T/C", "setting": "[2]", "result": "100 % of control"},
      {"measurement": "T/C", "setting": "[4]", "result": "86 % of control"}
    ]},
    {"molecule": "CCCCCOC(=O)COc1ccc(F)cc1", "values": [
      {"measurement": "T/C", "setting": "[7]", "result": "97 % of control"},
      {"measurement": "T/C", "setting": "[8]", "result": "105 % of control"},
      {"measurement": "T/C", "setting": "[9]", "result": "101 % of control"}
    ]},
    {"molecule": "CCC1CCC(NC(=O)NC)CC1", "note": "(stereo not drawn)", "values": [
      {"measurement": "T/C", "setting": "[2]", "result": "99 % of control"},
      {"measurement": "T/C", "setting": "[4]", "result": "92 % of control"}
    ]},
    {"molecule": "Nc1cc2c(c[n+](CCCCCCCC[n+]3cc4c5ccccc5c(N)cc4c4ccccc43)c3ccccc23)c2ccccc12", "values": [
      {"measurement": "T/C", "setting": "dose: 0.78 mg/kg/injection, schedule: Q04DX003 (ip), vehicle: other", "result": "114 % of control"},
      {"measurement": "T/C", "setting": "dose: 1.56 mg/kg/injection, schedule: Q04DX003 (ip), vehicle: other", "result": "157 % of control"},
      {"measurement": "T/C", "setting": "dose: 3.13 mg/kg/injection, schedule: Q04DX003 (ip), vehicle: other", "result": "124 % of control"},
      {"measurement": "T/C", "setting": "dose: 12.5 mg/kg/injection, schedule: Q04DX003 (ip), vehicle: other", "result": "157 % of control"},
      {"measurement": "T/C", "setting": "dose: 50.0 mg/kg/injection, schedule: Q04DX003 (ip), vehicle: other", "result": "124 % of control and 103 % of control"}
    ]}
  ]
}
